Active and inactive are the calls of the source. The calls are words filed in the database; no cut-off is given here.
Tests used:
[1] = tested on: Leishmania donovani; test: Antiparasitic activity against Leishmania donovani S1 promastigotes assessed as growth inhibition after 72 hrs by alamar blue assay; type: functional, organism-based; settings: S1, 72 h
[2] = tested on: Candida albicans; test: Antifungal activity against Candida albicans ATCC 90028 assessed as growth inhibition after 46 to 50 hrs by modified CLSI method; type: functional, organism-based
[3] = tested on: Cryptococcus neoformans; test: Antifungal activity against Cryptococcus neoformans ATCC 90113 assessed as growth inhibition after 70 to 74 hrs by modified CLSI method; type: functional, organism-based
[4] = tested on: Nakaseomyces glabratus; test: Antifungal activity against Candida glabrata ATCC 90030 assessed as growth inhibition after 46 to 50 hrs by modified CLSI method; type: functional, organism-based
[5] = tested on: Pichia kudriavzevii; test: Antifungal activity against Candida krusei ATCC 6258 assessed as growth inhibition after 46 to 50 hrs by modified CLSI method; type: functional, organism-based
[6] = Cytotoxicity against African green monkey Vero cells by neutral red assay; type: cell-based; settings: chlorocebus sabaeus, read-out: TC50 (the source's name)
[7] = tested on: Plasmodium falciparum; test: Antiparasitic activity against chloroquine-resistant Plasmodium falciparum W2 assessed as growth inhibition at 16 uM after 48 hrs by pLDH assay; type: functional, organism-based
[8] = tested on: Aspergillus fumigatus; test: Antifungal activity against Aspergillus fumigatus ATCC 90906 assessed as growth inhibition after 46 to 50 hrs by alamar blue assay; type: functional, organism-based
[9] = tested on: Plasmodium falciparum; test: Antiparasitic activity against chloroquine-sensitive Plasmodium falciparum D6 assessed as growth inhibition at 16 uM after 48 hrs by pLDH assay; type: functional, organism-based

C[C@@H]1[C@H](O)[C@@H](C)/C=C/C=C/C=C/C=C/C=C/C=C/C=C/[C@H](O[C@@H]2O[C@H](C)[C@@H](O)[C@H](N)[C@@H]2O)C[C@@H]2O[C@](O)(C[C@@H](O)C[C@@H](O)[C@H](O)CC[C@@H](O)C[C@@H](O)CC(=O)O[C@H]1C)C[C@H](O)[C@H]2C(=O)O [AMPHOTERICIN B]
IC50 [1]: 0.31 µM
IC90 [1]: 1.09 µM
growth inhibition (GI) [2]: inactive
IC50 [3]: 0.35 µM
IC50 [4]: 0.28 µM
IC50 [5]: 0.78 µM
CC50 [6]: 7.6 µM

O=C1CCCC(=O)C1=CC=C(c1ccccc1)c1ccccc1
growth inhibition (GI) [7]: inactive
IC50 [1]: 10.2 µM
IC90 [1]: 26.1 µM
growth inhibition (GI) [2]: inactive
IC50 [3]: 14.5 µM
IC50 [4]: > 60 µM
IC50 [5]: > 60 µM
growth inhibition (GI) [8]: inactive
CC50 [6]: > 15.7 µM
growth inhibition (GI) [9]: inactive

C/C=C/C=C/C=C1C(=O)CCCC1=O
growth inhibition (GI) [7]: inactive
IC50 [1]: 56.8 µM
IC90 [1]: > 100 µM
growth inhibition (GI) [2]: inactive
IC50 [3]: > 60 µM
IC50 [4]: > 60 µM
IC50 [5]: > 60 µM
growth inhibition (GI) [8]: inactive
CC50 [6]: > 25 µM
growth inhibition (GI) [9]: inactive

COc1ccc(/C=C/C=C2C(=O)CC(C)(C)CC2=O)cc1
growth inhibition (GI) [7]: inactive
IC50 [1]: 30.6 µM
IC90 [1]: 68.9 µM
growth inhibition (GI) [2]: inactive
IC50 [3]: 38.2 µM
IC50 [4]: > 60 µM
IC50 [5]: > 60 µM
growth inhibition (GI) [8]: inactive
CC50 [6]: > 16.7 µM
growth inhibition (GI) [9]: inactive

N=C(N)c1ccc(OCCCCCOc2ccc(C(=N)N)cc2)cc1 [PENTAMIDINE]
IC50 [1]: 3.82 µM
IC90 [1]: 12.4 µM
growth inhibition (GI) [2]: inactive

COc1ccc(/C=C/C=C2C(=O)CCC2=O)cc1
IC50 [1]: 7.01 µM
IC90 [1]: 19.8 µM
growth inhibition (GI) [2]: inactive
IC50 [3]: 13.4 µM
IC50 [4]: 35 µM
IC50 [5]: 24.1 µM
growth inhibition (GI) [8]: inactive
CC50 [6]: > 19.6 µM

CC1(C)CCC(=O)/C(=C\C=C\c2ccccc2)C1=O
growth inhibition (GI) [7]: inactive
IC50 [1]: 11.8 µM
IC90 [1]: 20.1 µM
growth inhibition (GI) [2]: inactive
IC50 [3]: 19.9 µM
IC50 [4]: > 60 µM
IC50 [5]: > 60 µM
growth inhibition (GI) [8]: inactive
CC50 [6]: > 18.7 µM
growth inhibition (GI) [9]: inactive

O=C1CCC(=O)C1=C/C=C/c1ccccc1
growth inhibition (GI) [7]: inactive
IC50 [1]: 2.16 µM
IC90 [1]: 3.58 µM
growth inhibition (GI) [2]: inactive
IC50 [3]: 11.9 µM
IC50 [4]: > 60 µM
IC50 [5]: 42.6 µM
growth inhibition (GI) [8]: inactive
CC50 [6]: > 22.4 µM
growth inhibition (GI) [9]: inactive

CC1(C)CC(=O)C(=C/C=C/c2ccc(F)cc2)C(=O)C1
growth inhibition (GI) [7]: inactive
IC50 [1]: 10.7 µM
IC90 [1]: 25 µM
growth inhibition (GI) [2]: inactive
IC50 [3]: 16.6 µM
IC50 [4]: 35.6 µM
IC50 [5]: > 60 µM
growth inhibition (GI) [8]: inactive
CC50 [6]: > 17.5 µM
growth inhibition (GI) [9]: inactive

CC(=O)/C(=C\C=C\c1ccccc1)C(=O)OC(C)(C)C
growth inhibition (GI) [7]: inactive
IC50 [1]: 46.6 µM
IC90 [1]: 99.2 µM
growth inhibition (GI) [2]: inactive
IC50 [3]: > 60 µM
IC50 [4]: > 60 µM
IC50 [5]: > 60 µM
growth inhibition (GI) [8]: inactive
CC50 [6]: > 17.5 µM
growth inhibition (GI) [9]: inactive

CC1(C)CC(=O)C(=C/C=C/c2ccc(Br)cc2)C(=O)C1
growth inhibition (GI) [7]: inactive
IC50 [1]: 9.6 µM
IC90 [1]: 18.6 µM
growth inhibition (GI) [2]: inactive
IC50 [3]: 24.7 µM
IC50 [4]: > 60 µM
IC50 [5]: > 60 µM
growth inhibition (GI) [8]: inactive
CC50 [6]: > 14.3 µM
growth inhibition (GI) [9]: inactive
